Source: PubChem BioAssay (NCI)
Where “and” joins values, the source holds several entries; their conditions need not be identical. Equal values may be shown once.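 Interpolation was linear, between the two tested concentrations surrounding the appropriate level; five concentrations were tested over 48 hours in 96-well plates. At the GI50, growth is halved. The concentration for full growth arrest is given as TGI.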

Key:
Assay in all cases: NCI tumour cell line growth inhibition, 48 h
A549 NSCLC = system: A549 NSCLC
SK-MEL-28 melanoma = system: SK-MEL-28 melanoma
NCI-H23 lung = system: NCI-H23 lung
TK-10 renal = system: TK-10 renal
SNB-19 CNS = system: SNB-19 CNS
MDA-MB-435 = system: MDA-MB-435
MOLT-4 leukemia = system: MOLT-4 leukemia
COLO 205 colon = system: COLO 205 colon
K-562 leukemia = system: K-562 leukemia
NCI-H226 lung = system: NCI-H226 lung

## CCOC(=O)c1c(-c2ccc(OC)cc2)c(C#N)c2c(C#N)c(N)nn2c1N
A549 NSCLC
  GI50: 5.06 µM
  TGI: > 100 µM
SK-MEL-28 melanoma
  GI50: 5.41 µM
  TGI: > 100 µM
NCI-H23 lung
  GI50: 4.69 µM
  TGI: > 100 µM
TK-10 renal
  GI50: 16.4 µM
  TGI: 69.2 µM
SNB-19 CNS
  GI50: 4.01 µM
  TGI: 22.5 µM
MDA-MB-435
  GI50: 0.613 µM
  TGI: 2.89 µM
MOLT-4 leukemia
  GI50: 4.07 µM
  TGI: > 100 µM
COLO 205 colon
  GI50: 2.8 µM
  TGI: 9.98 µM
K-562 leukemia
  GI50: 1.18 µM
  TGI: > 100 µM
NCI-H226 lung
  GI50: 3.62 µM
  TGI: > 100 µM

## C[C@H]1CN[C@@H]2[C@@H](C)[C@H]3[C@@H](C[C@H]4[C@@H]5CC[C@H]6C[C@@H](N)CC[C@]6(C)[C@H]5CC[C@]34C)O[C@@]2(O)C1
A549 NSCLC
  TGI: 17.3 µM
SK-MEL-28 melanoma
  TGI: 4.23 µM
NCI-H23 lung
  TGI: 26.9 µM
TK-10 renal
  TGI: 11.7 µM
SNB-19 CNS
  TGI: 6.96 µM
MDA-MB-435
  TGI: 3.71 µM
MOLT-4 leukemia
  TGI: 7.77 µM
COLO 205 colon
  TGI: 7.69 µM
K-562 leukemia
  TGI: 41.9 µM
NCI-H226 lung
  TGI: 5.77 µM

## C=CCc1ccc(O)c(-c2ccc(O)c(CC=C)c2)c1
A549 NSCLC
  GI50: 30.7 µM
  TGI: > 100 µM
SK-MEL-28 melanoma
  GI50: 16.6 µM
  TGI: 31 µM
NCI-H23 lung
  GI50: 16.3 µM
  TGI: 34.4 µM
TK-10 renal
  GI50: 16 µM
  TGI: 33.9 µM
SNB-19 CNS
  GI50: 21.1 µM
  TGI: 37 µM
MDA-MB-435
  GI50: 14.7 µM
  TGI: 31.5 µM
MOLT-4 leukemia
  GI50: 4.94 µM
  TGI: > 39.9 µM
COLO 205 colon
  GI50: 18.5 µM
  TGI: 34.1 µM
K-562 leukemia
  GI50: 8.54 µM
  TGI: > 46.1 µM
NCI-H226 lung
  GI50: 18.4 µM
  TGI: 36.9 µM

## COc1ccccc1Nc1ncc(-c2ccccc2)o1
A549 NSCLC
  GI50: > 25 µM
  TGI: > 25 µM
SK-MEL-28 melanoma
  GI50: > 25 µM
  TGI: > 25 µM
NCI-H23 lung
  GI50: > 25 µM
  TGI: > 25 µM
TK-10 renal
  GI50: > 25 µM
  TGI: > 25 µM
SNB-19 CNS
  GI50: > 25 µM
  TGI: > 25 µM
MDA-MB-435
  GI50: > 25 µM
  TGI: > 25 µM
MOLT-4 leukemia
  GI50: > 25 µM
  TGI: > 25 µM
COLO 205 colon
  GI50: > 25 µM
  TGI: > 25 µM
K-562 leukemia
  GI50: > 25 µM
  TGI: > 25 µM
NCI-H226 lung
  GI50: > 25 µM
  TGI: > 25 µM

## CSc1nc(NC2OC(COC(C)=O)C(OC(C)=O)C(OC(C)=O)C2OC(C)=O)c(N=CC=Nc2c(NC3OC(COC(C)=O)C(OC(C)=O)C(OC(C)=O)C3OC(C)=O)nc(SC)n(C)c2=O)c(=O)n1C (stereo not drawn)
A549 NSCLC
  GI50: > 50 µM
  TGI: > 100 µM
SK-MEL-28 melanoma
  GI50: > 50 µM
  TGI: > 100 µM
NCI-H23 lung
  GI50: > 50 µM
  TGI: > 100 µM
TK-10 renal
  GI50: 30.7 µM
  TGI: 50 µM and > 97.1 µM
SNB-19 CNS
  GI50: 21.1 µM
  TGI: 50 µM and 92.1 µM
MDA-MB-435
  GI50: > 50 µM
  TGI: > 100 µM
MOLT-4 leukemia
  GI50: > 50 µM
  TGI: > 100 µM
COLO 205 colon
  GI50: > 50 µM
  TGI: > 100 µM
K-562 leukemia
  GI50: > 50 µM
  TGI: > 100 µM
NCI-H226 lung
  TGI: > 50 µM and 97.8 µM

## COc1ccc(C(O)(CCC(C)C)C(CN2CCOCC2)c2ccc(Cl)cc2)cc1 (stereo not drawn)
A549 NSCLC
  GI50: 11.6 µM
  TGI: 35 µM
SK-MEL-28 melanoma
  GI50: 15.7 µM
  TGI: 34.4 µM
NCI-H23 lung
  GI50: 9.85 µM
  TGI: 30.3 µM
TK-10 renal
  GI50: 16.7 µM
  TGI: 31.3 µM
SNB-19 CNS
  GI50: 14.8 µM
  TGI: 52.4 µM
MDA-MB-435
  GI50: 14.9 µM
  TGI: 37.3 µM
MOLT-4 leukemia
  GI50: 9.83 µM
  TGI: 33.1 µM
COLO 205 colon
  GI50: 12.7 µM
  TGI: 30.9 µM
K-562 leukemia
  GI50: 15.1 µM
  TGI: 47 µM
NCI-H226 lung
  GI50: 13.2 µM
  TGI: 32.1 µM

## C=COC(=O)N[C@H]1CCc2cc(OC)c(OC)c(OC)c2-c2ccc(SC)c(=O)cc21
A549 NSCLC
  TGI: 72.7 µM
SK-MEL-28 melanoma
  TGI: > 96.3 µM
NCI-H23 lung
  TGI: 12.1 µM
TK-10 renal
  TGI: 86.5 µM
SNB-19 CNS
  TGI: 24.8 µM
MDA-MB-435
  TGI: < 0.01 µM
MOLT-4 leukemia
  TGI: > 96.8 µM
COLO 205 colon
  TGI: < 0.01 µM
K-562 leukemia
  TGI: > 31.6 µM
NCI-H226 lung
  TGI: 0.793 µM

## CN(C)C/C=C/C(=O)Nc1cc2c(Nc3ccc(F)c(Cl)c3)ncnc2cc1O[C@H]1CCOC1
A549 NSCLC
  GI50: 1.48 µM and 1.6 µM
  TGI: 7.55 µM and > 10 µM
SK-MEL-28 melanoma
  GI50: 2.29 µM and 2.45 µM
  TGI: 6.8 µM and > 10 µM
NCI-H23 lung
  GI50: 1.96 µM and 2.49 µM
  TGI: 8.66 µM and > 10 µM
TK-10 renal
  GI50: < 0.01 µM and 0.00136 µM
SNB-19 CNS
  GI50: 2.76 µM and 2.42 µM
  TGI: 15.7 µM and > 10 µM
MDA-MB-435
  GI50: 0.603 µM and 0.882 µM
  TGI: 7.37 µM and > 5.68 µM
MOLT-4 leukemia
  GI50: 2.43 µM and 1.45 µM
  TGI: 11.3 µM and 7.24 µM
COLO 205 colon
  GI50: 0.998 µM and 0.887 µM
  TGI: 3.09 µM and > 5.59 µM
K-562 leukemia
  GI50: 3.17 µM and 1.97 µM
  TGI: 14.1 µM and > 10 µM
NCI-H226 lung
  GI50: 2.04 µM and 5.25 µM
  TGI: 8.45 µM and > 10 µM

## CN(C)C(=S)Sc1ccc([N+](=O)[O-])cc1[N+](=O)[O-]
A549 NSCLC
  GI50: 3.21 µM
  TGI: 17.6 µM
SK-MEL-28 melanoma
  GI50: 6.75 µM
  TGI: 18.4 µM
NCI-H23 lung
  GI50: 2.93 µM
  TGI: 11.6 µM
TK-10 renal
  GI50: 2.29 µM
  TGI: 5.85 µM
SNB-19 CNS
  GI50: 11 µM
  TGI: 25.1 µM
MDA-MB-435
  GI50: 1.54 µM
  TGI: 5.36 µM
MOLT-4 leukemia
  GI50: 2.04 µM
  TGI: > 42 µM
COLO 205 colon
  GI50: 0.8 µM
  TGI: 3.02 µM
K-562 leukemia
  GI50: 1.06 µM
  TGI: 25.6 µM
NCI-H226 lung
  GI50: 4.33 µM
  TGI: 17.5 µM

## O=C(CNS(=O)(=O)Cc1ccccc1)NNc1ccccc1
A549 NSCLC
  TGI: > 100 µM
SK-MEL-28 melanoma
  TGI: > 100 µM
NCI-H23 lung
  TGI: > 100 µM
TK-10 renal
  TGI: > 100 µM
SNB-19 CNS
  TGI: > 100 µM
MDA-MB-435
  TGI: > 100 µM
MOLT-4 leukemia
  TGI: > 100 µM
COLO 205 colon
  TGI: 12.4 µM
K-562 leukemia
  TGI: > 100 µM
NCI-H226 lung
  TGI: > 100 µM

## C/C(=N\NC(=S)N1CCCCCC1)c1ccccn1
A549 NSCLC
  GI50: < 0.0188 µM
  TGI: 6.46 µM and 2.49 µM
SK-MEL-28 melanoma
  TGI: 0.295 µM
NCI-H23 lung
  GI50: < 0.0182 µM
  TGI: 5.85 µM and 6.33 µM
TK-10 renal
  TGI: 8.56 µM and 7.56 µM
SNB-19 CNS
  GI50: 0.101 µM
  TGI: 4.38 µM and 6.44 µM
MDA-MB-435
  GI50: 0.0703 µM
  TGI: 3.92 µM and 1.17 µM
MOLT-4 leukemia
  TGI: 3.46 µM and > 31.9 µM
COLO 205 colon
  TGI: 0.0286 µM
K-562 leukemia
  TGI: 1.92 µM and 4.53 µM
NCI-H226 lung
  GI50: 0.245 µM
  TGI: 3.62 µM and 5.35 µM

## Cn1c(Nc2ccc(C(F)(F)F)cc2)nc2cc(Oc3ccnc(-c4ncc(C(F)(F)F)[nH]4)c3)ccc21
A549 NSCLC
  GI50: 0.231 µM
  TGI: 11.7 µM
SK-MEL-28 melanoma
  GI50: 0.126 µM
  TGI: 4.79 µM
NCI-H23 lung
  GI50: 0.31 µM
  TGI: 7.8 µM
TK-10 renal
  GI50: 2.91 µM
  TGI: 16.2 µM
SNB-19 CNS
  GI50: 1.04 µM
  TGI: 20.1 µM
MDA-MB-435
  GI50: 0.0774 µM
  TGI: 9.44 µM
MOLT-4 leukemia
  GI50: 0.319 µM
  TGI: 8.76 µM
COLO 205 colon
  GI50: 0.367 µM
  TGI: 10.6 µM
K-562 leukemia
  GI50: 1.76 µM
  TGI: 25 µM
NCI-H226 lung
  GI50: 0.492 µM
  TGI: 16.5 µM

## Nc1c(C(=O)c2ccccc2)cnn1-c1ccc(F)cc1
A549 NSCLC
  GI50: > 25 µM
  TGI: > 25 µM
SK-MEL-28 melanoma
  GI50: > 25 µM
  TGI: > 25 µM
NCI-H23 lung
  GI50: > 25 µM
  TGI: > 25 µM
TK-10 renal
  GI50: > 25 µM
  TGI: > 25 µM
SNB-19 CNS
  GI50: > 25 µM
  TGI: > 25 µM
MDA-MB-435
  GI50: > 25 µM
  TGI: > 25 µM
MOLT-4 leukemia
  GI50: > 25 µM
  TGI: > 25 µM
COLO 205 colon
  GI50: > 25 µM
  TGI: > 25 µM
K-562 leukemia
  GI50: > 25 µM
  TGI: > 25 µM
NCI-H226 lung
  GI50: > 25 µM
  TGI: > 25 µM
